The results in this text go back to article PMC12175177 (Frontiers in Pharmacology, 2025).

The subject of this assay is SARS-CoV-2 A2.5 variant. In words: Pre- and post-exposure assay, A2.5 variant in Vero E6 cells. The format is cell-based.

For `CCN(CC)CCCC(C)Nc1ccnc2cc(Cl)ccc12` (stereo not shown) [Chloroquine diphosphate (CQ), Chloroquine diphosphate], the “antiviral effect, treatment 1 hour post-infection, A2.5” value is recorded as “dose-dependent antiviral effect” and the “effect on viral replication, treatment 1 hour pre-infection, A2.5” value is “did not influence the viral replication”.
Turning to `COc1cc(NC(C)CCCN)c2ncccc2c1` (stereo not shown) [Primaquine Phosphate (PQ), Primaquine Phosphate], the “antiviral effect, treatment 1 hour post-infection, A2.5” value is reported as “dose-dependent antiviral effect” and the “effect on viral replication, treatment 1 hour pre-infection, A2.5” value is “did not influence the viral replication”.
